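Step 1: Grow cells in 96-well plates. Step 2: Expose to compound for 48 hours at 5 concentrations. Step 3: Interpolate endpoints linearly; if unreached, use highest concentration. The concentration for 50% growth inhibition is given as GI50. The concentration for full growth arrest is given as TGI.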
Tests used:
Test in all cases: NCI tumour cell line growth inhibition, 48 h
[1] = system: A498 renal
[2] = system: IGROV1 ovarian
[3] = system: KM12 colon
[4] = system: M14 melanoma
[5] = system: MDA-MB-231 breast
[6] = system: MOLT-4 leukemia
[7] = system: NCI-H522 lung
[8] = system: SW-620 colon
[9] = system: U251 CNS
[10] = system: UACC-62 melanoma

| Compound | TGI [1] [µM] | TGI [2] [µM] | TGI [3] [µM] | TGI [4] [µM] | TGI [5] [µM] | TGI [6] [µM] | TGI [7] [µM] | TGI [8] [µM] | TGI [9] [µM] | TGI [10] [µM] | GI50 [1] [µM] | GI50 [2] [µM] | GI50 [3] [µM] | GI50 [4] [µM] | GI50 [5] [µM] | GI50 [6] [µM] | GI50 [7] [µM] | GI50 [8] [µM] | GI50 [9] [µM] | GI50 [10] [µM] |
| --- | --- | --- | --- | --- | --- | --- | --- | --- | --- | --- | --- | --- | --- | --- | --- | --- | --- | --- | --- | --- |
| CSc1ccn(C2CC(F)C(CO)O2)c(=O)n1 (stereo not given) | > 100 | > 100 | > 100 | > 100 | > 100 | > 100 | > 100 | > 100 | > 100 | > 100 |  |  |  |  |  |  |  |  |  |  |
| O=C1C(Cl)=C(N(C(=O)c2ccccc2)C(=O)c2ccccc2)C(=O)c2ccccc21 | > 100 | > 100 | 15.7 | > 100 | > 100 | > 100 | 43.7 | 24.3 | > 100 | 19.8 |  |  |  |  |  |  |  |  |  |  |
| Cc1nc(C)c(N2CCNCC2)c(=O)[nH]1 | > 100 | > 100 | > 100 | > 100 | > 100 | > 100 | > 100 | > 100 | > 100 | > 100 |  |  |  |  |  |  |  |  |  |  |
| O=C(NC(=O)c1cc(-c2ccccc2)n[nH]1)c1ccccc1 | > 100 | > 100 | > 100 | > 100 | > 100 | > 100 | > 100 | > 100 | > 100 | > 100 |  |  |  |  |  |  |  |  |  |  |
| Cc1cc(S(=O)(=O)Nc2nnc3cnc4ccccc4n23)c(S)cc1Cl | > 100 | > 100 | > 100 | > 100 | > 100 | > 100 | > 100 | > 100 | > 100 | > 100 |  |  |  |  |  |  |  |  |  |  |
| Cc1sc2c(c1C)/C(=N\O)c1cccn1-2 | 75.9 | > 100 | > 100 | > 100 | > 100 | > 100 | > 100 | > 100 | 69.7 | > 100 |  |  |  |  |  |  |  |  |  |  |
| COC1=CC(=O)CC(C)C12Oc1c(Cl)c(OC)cc(OC)c1C2=O (stereo not given) | > 93.8 | > 100 | > 100 | > 65.7 | 32.5 | > 100 | 23.1 | > 100 | > 100 | > 100 |  |  |  |  |  |  |  |  |  |  |
| C=C1C(O)C[C@H](OC(C)=O)[C@]2(C)C1C(OC(C)=O)[C@]1(C(C)(C)O)CC(O)C(C)=C1[C@@H](OC(=O)c1ccccc1)C2OC(C)=O (stereo not given in full) | > 10 | > 10 | > 10 | > 10 | > 10 | > 10 | > 10 | > 10 | > 10 | > 10 |  |  |  |  |  |  |  |  |  |  |
| COc1cc2c(c(O)c1OC)CC1CCC(=O)N1C2c1cccc2ccccc12 (stereo not given) | 68.8 | 59.3 | 55.4 | 33.8 | 33 | > 100 | 41 | 73 | 42.9 | 30.9 |  |  |  |  |  |  |  |  |  |  |
| COC1=CC2(CC(OC)=C1OC)OC21COc2ccccc2C1=O (stereo not given) | > 100 | > 100 | > 100 | > 100 | > 100 | > 100 | > 100 | > 100 | > 100 | > 100 |  |  |  |  |  |  |  |  |  |  |
| COc1ccccc1NC(=O)CC(=O)N1N=C(N2c3ccccc3Sc3ccccc32)CC1c1ccccc1 (stereo not given) | > 100 | > 100 | > 100 | > 100 | > 100 | > 100 | > 100 | > 100 | > 100 | > 100 |  |  |  |  |  |  |  |  |  |  |
| COc1ccc2c3c([nH]c2c1)CCN(CCCC(=O)c1ccc(F)cc1)C3 | 29.7 | 32.7 | 34.4 | 28.9 | 31.2 | 36.2 | 42.8 | 32.8 | 32 | 27.4 |  |  |  |  |  |  |  |  |  |  |
| COc1cc(OC)cc(-c2n/c(=C\c3c(O)[nH]c4ccc(OC)cc34)cc3c2=Nc2ccccc2-3)c1 | 34 | 68.4 | 6.21 | 4.18 | 3.26 | 6.36 | 37.2 | 22.4 | 3.84 | 36 | 14.8 | 25.2 | 2.58 | 2.24 | 1.56 | 2.56 | 17.8 | 3.92 | 1.93 | 18.3 |
| CC(C)=CCC/C(C)=C/COc1c2ccoc2cc2oc(=O)ccc12 | 68.2 | > 100 | > 100 | 89.1 | 86.5 | 42.3 | 74.8 | > 100 | 55.5 | 38.3 |  |  |  |  |  |  |  |  |  |  |
| CCCCCCCCCCCC[C@@H](O)[C@H]1CCC([C@H](O)CCCCC(=O)CCCCCCCC2=C[C@H](C)OC2=O)O1 (stereo not given in full) | > 50 | > 50 | > 50 | > 35.8 | > 50 | > 50 | > 50 | > 50 | > 50 | > 40.9 |  |  |  |  |  |  |  |  |  |  |
| C=C(C)COC1CCCCO1 (stereo not given) | > 100 | > 100 | > 100 | > 100 | > 100 | > 100 | > 100 | > 100 | > 100 | > 100 |  |  |  |  |  |  |  |  |  |  |
| O=C1CC[C@@]2(O)[C@H]3Cc4ccc(-c5ccccc5)c5c4[C@@]2(CCN3CC2CC2)[C@H]1O5 | 36.6 | > 100 | 36.6 | 34 | 31.8 | 43.5 | 30.1 | 25 | 32.1 | 25.2 |  |  |  |  |  |  |  |  |  |  |

Source: PubChem BioAssay (NCI)
